The values below come from patent US20150038545A1, “HYDROXYPHENYL PYRROLE COMPOUNDS CONTAINING AN HYDROXAMIC ACID AS HDAC INHIBITORS AND MEDICINAL APPLICATIONS THEREOF” (UNIVERSIDAD DEL PAÍS VASCO, priority 2011, published 2015).

Structures are written as SMILES.

One assay deals with T1, Human HDAC9 (Homo sapiens, UniProt Q9UKV0).
T1 construct: Amino acids 604-1066 with C-terminal His tag, MW=50.7 kDa; His (C); purchased BioMol, Hamburg, Germany
Briefly: In vitro HDAC9 inhibition, fluorogenic peptide assay. In kind it is biochemical. Conditions: for IC50: read-out: IC50 (nM) of enzyme activity HDAC9. The method, then:
(§1) All HDAC assays were performed using acetylated AMC-labeled peptide substrate: • Substrate for isoforms HDAC1, 2, 3, 4, 5, 6, 7, 9, 10, 11 and HeLa nuclear extract assays: Acetylated fluorogenic peptide from p53 residues 379-382 (RHKKAc) (BioMol. Cat. # KI-104). • Substrate for HDAC8 assays: Acetylated fluorogenic peptide from p53 residues 379-382 (RHKAcKAc) (BioMol. Cat. # KI-178).
(§2) Enzymes: • HDAC1 assay: 75 nM Human HDAC1 (GenBank Accession No. NM_004964): Full length with C-terminal GST tag, MW=79.9 kDa, expressed by baculovirus expression system in Sf9 cells (BioMol. Cat. # SE-456). • HDAC2 assay: 5 nM Human HDAC2 (GenBank Accession No. Q92769): Full length with C-terminal His tag, MW=60 kDa, expressed by baculovirus expression system in Sf9 cells (BioMol. Cat. # SE-500). • HDAC3 assay: 2.3 nM Human HDAC3/NcoR2 (GenBank Accession No. NM_003883 for HDAC3, GenBank Accession No.NM_006312 for NcoR2): Complex of human HDAC3, full length with C-terminal His tag, MW=49.7 kDa, and human NCOR2, N-terminal GST tag, MW=39 kDa, co-expressed in baculovirus expression system (BioMol. Cat. # SE-507). • HDAC4 assay: 266 nM Human HDAC4 (GenBank Accession No. NM_006037): Amino acids 627-1085 with N-terminal GST tag, MW=75.2 kDa, expressed in baculovirus expression system (BioMol, Hamburg, Germany). • HDAC5 assay: 588 nM Human HDAC5 (GenBank Accession No. NM_001015053): Full length with Nterminal GST tag, MW=150 kDa, expressed by baculovirus expression system in Sf9 cells (BioMol, Hamburg, Germany). • HDAC6 assay: 13 nM Human HDAC6 (GenBank Accession No. BC069243): Full length with N-terminal GST tag, MW=159 kDa, expressed by baculovirus expression system in Sf9 cells (BioMol. Cat. # SE-508). • HDAC7 assay: 962 nM Human HDAC7 (GenBank Accession No. AY302468): Amino acids 518-end with N-terminal GST tag, MW=78 kDa, expressed in baculovirus expression system (BioMol, Hamburg, Germany). • HDAC8 assay: 119 nM Human HDAC8 (GenBank Accession No. NM018486): Full length, MW=42 kDa, expressed in an E. coli expression system (BioMol. […]
(§3) The reactions were carried out in a 96-well microplate for fluorometry in a 50 μl reaction volume. […] The reaction was allowed to develop for 45 minutes at 30° C. with 5% CO2; then the fluorescent signal was measured with an excitation wavelength at 360 nm and an emission wavelength at 460 nm in a microplate-reading fluorometer (GeminiXS; Molecular Devices, Sunnyvale, Calif.). […] IC50 was calculated by fitting the experimental data to a dose-response curve. […]

For a further assay, the target named is T2, Human HDAC10 (Homo sapiens, UniProt Q969S8).
T2 construct: Amino acids 1-631 with Nterminal GST tag, MW=96 kDa; GST (N); purchased BioMol SE-559; host or cells: Sf9 cells, baculovirus
T2 sequence (Q969S8 1-631): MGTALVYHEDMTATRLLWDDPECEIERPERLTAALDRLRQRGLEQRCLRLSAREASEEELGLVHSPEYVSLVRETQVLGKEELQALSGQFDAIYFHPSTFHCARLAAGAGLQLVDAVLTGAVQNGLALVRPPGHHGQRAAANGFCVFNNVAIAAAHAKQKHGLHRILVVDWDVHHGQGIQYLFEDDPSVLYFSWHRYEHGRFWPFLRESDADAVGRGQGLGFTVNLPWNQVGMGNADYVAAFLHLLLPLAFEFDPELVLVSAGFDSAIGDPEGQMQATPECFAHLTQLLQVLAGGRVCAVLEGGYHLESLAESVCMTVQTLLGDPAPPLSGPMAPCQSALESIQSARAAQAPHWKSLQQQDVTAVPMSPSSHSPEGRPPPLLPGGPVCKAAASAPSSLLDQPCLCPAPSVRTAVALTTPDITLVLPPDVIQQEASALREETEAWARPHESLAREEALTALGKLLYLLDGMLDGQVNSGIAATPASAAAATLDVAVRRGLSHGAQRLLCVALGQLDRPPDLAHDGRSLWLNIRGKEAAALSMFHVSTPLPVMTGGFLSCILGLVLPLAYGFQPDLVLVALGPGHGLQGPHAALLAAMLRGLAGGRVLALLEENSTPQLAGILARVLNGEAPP
Briefly: In vitro HDAC10 inhibition, fluorogenic peptide assay. Conditions: for IC50: read-out: IC50 (nM) of enzyme activity HDAC10. In kind it is biochemical. The method, then:
as §1, §2, §3

T1 sequence (Q9UKV0 604-1066 isoform Q9UKV0-7): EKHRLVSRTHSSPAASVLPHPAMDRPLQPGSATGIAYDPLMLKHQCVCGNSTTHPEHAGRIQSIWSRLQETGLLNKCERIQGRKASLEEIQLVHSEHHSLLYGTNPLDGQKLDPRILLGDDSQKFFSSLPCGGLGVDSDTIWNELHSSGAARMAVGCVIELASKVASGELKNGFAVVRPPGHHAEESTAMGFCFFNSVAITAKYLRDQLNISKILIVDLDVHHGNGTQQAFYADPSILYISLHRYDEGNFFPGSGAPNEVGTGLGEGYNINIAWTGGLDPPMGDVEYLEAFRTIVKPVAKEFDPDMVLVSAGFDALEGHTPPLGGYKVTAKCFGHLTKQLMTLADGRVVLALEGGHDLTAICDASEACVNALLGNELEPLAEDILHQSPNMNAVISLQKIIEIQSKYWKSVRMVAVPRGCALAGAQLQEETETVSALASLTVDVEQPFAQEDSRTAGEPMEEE

In general, IC50 refers to the concentration needed to halve the response being measured. For `COc1ccc(-c2cc(-c3ccccc3)[nH]c2C(=O)NCCCCCC(=O)NO)cc1` [Compound A, N-[6-(hydroxyamino)-6-oxohexyl]-3-(4-methoxyphenyl)-5-phenyl-1H-pyrrole-2-carboxamide, reference compound], the “Selectivity against HDAC6 (IC50 HDACx/IC50 HDAC6) HDAC9” value on Human HDAC9 (IC50 HDAC9/IC50 HDAC6) stood at 38.4. Further, the half-maximal inhibitory concentration (IC50) on Human HDAC9 is 768 nM; on Human HDAC10 it was 346 nM. Further, the “Selectivity against HDAC6 (IC50 HDACx/IC50 HDAC6) HDAC10” value at Human HDAC10 (IC50 HDAC10/IC50 HDAC6) turned out to be 17.3.
Turning to `O=C(CCCCCNC(=O)c1[nH]c(-c2ccc(O)cc2)cc1-c1ccoc1)NO` [Example 5, 3-(3-furyl)-N-(5-(hydroxycarbamoyl)pentyl)-5-(4-hydroxy-phenyl)-1H-pyrrole-2-carboxamide], the IC50 on Human HDAC9 amounted to 27 nM; on Human HDAC10, 14 nM.
Turning to `O=C(CCCCCNC(=O)c1[nH]c(-c2ccc(O)cc2)cc1-c1ccsc1)NO` [Example 6, N-(5-(hydroxycarbamoyl)pentyl)-5-(4-hydroxyphenyl)-3-(3-thienyl)-1H-pyrrole-2-carboxamide], the concentration for half-maximal inhibition (IC50) on Human HDAC9 stood at 80 nM; on Human HDAC10, 47 nM.
